According to BindingDB's records for doi:10.1074/jbc.M112.443390 (The Ohio State University, 2013):

Legend:
[1] = molecular target: T1, Gag-Pol polyprotein [A1275T] (Human immunodeficiency virus type 1 group M subtype B (isolate NY5), UniProt P12497, A1275T); assay: 3'-Processing Assay
Description: (§1) A recently reported time-resolved fluorescence assay [J. Biol. Chem. 287: 21189-21203] was used to quantify IN 3'-processing and strand transfer activities.

Gag-Pol polyprotein [2] = molecular target: T2, Gag-Pol polyprotein (Human immunodeficiency virus type 1 group M subtype B (isolate NY5), UniProt P12497); assay: 3'-Processing Assay
Description: as §1

[3] = molecular target: T1, Gag-Pol polyprotein [A1275T]; assay: Strand Trasnfer Assay
Description: as §1

Gag-Pol polyprotein [4] = molecular target: T2, Gag-Pol polyprotein; assay: Strand Trasnfer Assay
Description: as §1

SMILES | IC50 [1] [nM] | IC50 (Gag-Pol polyprotein [2]) [nM] | IC50 [3] [nM] | IC50 (Gag-Pol polyprotein [4]) [nM]
CO[C@H](C(=O)O)c1c(C)nc2ccc(Br)cc2c1-c1ccc(Cl)cc1 | 261000 | 910 | 4610 | 400
Cc1nc2ccc(Br)cc2c(-c2ccc(Cl)cc2)c1C(OC(C)(C)C)C(=O)O (stereo not drawn) [ALLINI-2] | 200000 | 180 | 890 | 170
